# Results reported in patent US20240092803A1, “BRIDGED COMPOUNDS AS KRAS G12D INHIBITOR AND DEGRADER AND THE USE THEREOF” (BEIGENE SWITZERLAND GMBH, priority 2021, published 2024).
# Columns and labels:
# [1] = target: GST-tagged WT KRAS (amino acids 1-188) binding to His-tagged SOS1 (Homo sapiens (Human), UniProt P01116); experiment: KRAS WT:SOS1 GDP TR-FRET assay; conditions: GDP 10 μM; WT KRAS 37.5 nM; SOS1 18 nM
# Procedure: (§1) KRAS: SOS1 GDP TR-FRET Assay
# (§2) This assay was used to identify compounds which competitively interact with the binding of KRAS protein to SOS1 in the presence of GDP. GST-tagged WT KRAS (amino acids 1-188), GST-tagged KRAS (amino acids 1-188) G12D and His- tagged SOS1 protein (amino acids 564-1049) was expressed in E. coli and purified. All protein and reaction solutions were prepared in assay buffer containing DPBS pH7.5, 0.1% BSA, and 0.05% Tween 20. Purified GST-tagged WT KRAS or KRAS G12D protein (37.5 nM final assay concentration) and GDP (Sigma, 10 μM final assay concentration) mixture, a serially diluted compound (top final concentration is 50 uM or 10 uM, 3-fold serially diluted, 10 points) and His-tagged SOS1 protein (18 nM final assay concentration) were added into the assay plates (384 well microplate, black, Corning) sequentially. Plates are incubated at 24° C. for 1 hr. Following the incubation, Mab Anti-6His-Tb cryptate (Cisbio) and Mab Anti GST-D2 (Cisbio) were added and further incubated at 24° C. for another 1 hr. The TR-FRET signals (ex337nm, em665nm/620nm) were read on BMG PHERAstar FSX instrument. The inhibition percentage of KRAS protein binding with SOS1 in presence of increasing concentrations of compounds was calculated based on the ratio of fluorescence at 665 nm to that at 620 nm. The IC50 value of each compound was calculated from fitting the data to the four-parameter logistic model by Dotmatics.
# [2] = target: GST-tagged KRAS (amino acids 1-188) G12D binding to His-tagged SOS1 (Homo sapiens (Human), UniProt P01116, G12D); experiment: KRAS G12D:SOS1 GDP TR-FRET assay; conditions: GDP 10 μM; KRAS G12D 37.5 nM; SOS1 18 nM
# Sequence of GST-tagged KRAS (amino acids 1-188) G12D binding to His-tagged SOS1 (P01116 other isoform, or with tags, fused parts or gaps G12D): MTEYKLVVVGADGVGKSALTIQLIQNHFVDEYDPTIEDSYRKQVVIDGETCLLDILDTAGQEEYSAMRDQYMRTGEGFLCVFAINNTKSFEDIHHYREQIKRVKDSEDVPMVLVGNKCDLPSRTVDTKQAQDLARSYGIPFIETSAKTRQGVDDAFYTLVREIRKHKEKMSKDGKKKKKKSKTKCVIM
# Procedure: as §1, §2
# [3] = test system: pERK1/2(THR202/TYR204) level in AsPC-1 cells; experiment: pERK assay (HTRF) in AsPC-1 cells; assay type: cell-based; conditions: Homo sapiens, ASPC1, 2 h compound treatment
# Procedure: AsPC-1 cell line was used in this study. Cells were maintained in RPMI-1640 supplemented with 10% fetal bovine serum (Thermo Fisher), 50 units/mL penicillin and streptomycin (Thermo Fisher) and kept at 37° C. in a humidified atmosphere of 5% CO2 in air. Cells were reinstated from frozen stocks that were laid down within 30 passages from the original cells purchased. 30000 cells per well were seeded into a 96-well plate and incubated overnight. Cells were treated with a 10-point dilution series. The final compound concentration is from 0 to 10 μM. After 2 h compound treatment, cells were lysed, and the pERK1/2(THR202/TYR204) level in the cell lysates was detected by HTRF kit (Cisbio). In brief, a total of 16 μl of cell lysate from each well of a 96-well plate was transferred to a 384-well white assay plate. Lysate from each well was incubated with 2 μL of Eu3+- cryptate (donor) labeled anti-phospho-ERK1/2 and 2 μL of D2 (acceptor) labeled anti-phospho-ERK1/2 antibodies (Cisbio) overnight in dark at room temperature. When donor and acceptor are in close proximity, excitation of the donor with laser triggers a Fluorescence Resonance Energy Transfer (FRET) towards the acceptor, which in turn fluoresces at 655 nm wavelength. FRET signals were measured using a PHERAstar FSX reader (BMG Labtech). IC50 determination was performed by fitting the curve of percent inhibition versus the log of the inhibitor concentration using Dotmatics.
# [4] = target: KRAS G12D HiBiT in HEK293 KRAS-G12D NanoLuc cell pool (Homo sapiens (Human), UniProt P01116, G12D); experiment: KRAS G12D NanoLuc assay; assay type: cell-based; conditions: 24 h compound treatment
# Sequence of KRAS G12D HiBiT in HEK293 KRAS-G12D NanoLuc cell pool (P01116 other isoform, or with tags, fused parts or gaps G12D): as above
# Procedure: HEK293 KRAS-G12D NanoLuc cell pool was used in this study. The cells were stable expressing KRAS G12D HiBiT and LgBiT. Cells were maintained in DMEM supplemented with 10% fetal bovine serum (Thermo Fisher), 50 units/mL penicillin and streptomycin (Thermo Fisher) and kept at 37° C. in a humidified atmosphere of 5% CO2 in air. Cells were reinstated from frozen stocks that were laid down within 30 passages from the cell pool was constructed. 20000 cells per well were seeded a 96-well White with Clear Flat bottom plate for 4 h. Cells were treated with a 10-point dilution series. The final compound concentration is from 0 to 10 μM. After 24 h compound treatment, added 20 μL of CellTiter-Fluor reagent (Promega) to plates, shook for 2 min, incubated at least 30 min in 37° C. Added 25 μL of NanoGlo Live cell reagent (Promega) to the same plate. shook by mini-shaker for 5 min. Measure Luminescence and Fluorescence (380-400nmEx/505nmEm) signals immediately using a PHERAstar FSX reader (BMG Labtech). DC50 determination was performed by fitting the curve of percent inhibition versus the log of the inhibitor concentration using Excel and GraphPad Prism 8.
# Sequence of GST-tagged WT KRAS (amino acids 1-188) binding to His-tagged SOS1 (P01116 other isoform, or with tags, fused parts or gaps): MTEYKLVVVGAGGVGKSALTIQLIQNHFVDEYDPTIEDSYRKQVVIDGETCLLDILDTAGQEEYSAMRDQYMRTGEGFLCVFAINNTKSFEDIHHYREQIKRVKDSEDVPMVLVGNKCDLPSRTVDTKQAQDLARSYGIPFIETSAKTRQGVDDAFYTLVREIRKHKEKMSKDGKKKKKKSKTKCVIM
compound,measurement,setting,value
"Cc1cccc2cccc(N3CCc4c(nc(OC[C@@H]5CCCN5C)nc4N4CCNCC4)C3)c12 [Example 1, (S)-7-(8-methylnaphthalen-1-yl)-2-((1-methylpyrrolidin-2-yl)methoxy)-4-(piperazin-1-yl)-5,6,7,8-tetrahydropyrido[3,4-d]pyrimidine]",IC50,[1],> 50 µM
same,IC50,[2],22.7 µM
"Cc1cccc2cccc(N3CCc4c(nc(OC[C@@H]5CCCN5C)nc4N4C5CCC4C(N)C5)C3)c12 (stereo partly drawn) [Example 2, 7-(7-(8-methylnaphthalen-1-yl)-2-(((S)-1-methylpyrrolidin-2-yl)methoxy)-5,6,7,8-tetrahydropyrido[3,4-d]pyrimidin-4-yl)-7-azabicyclo[2.2.1]heptan-2-amine]",IC50,[1],34.2 µM
same,IC50,[2],4.5 µM
"CN1CCC[C@H]1COc1nc2c(c(N3C4CCC3CNC4)n1)CCN(c1cccc3cccc(Cl)c13)C2 [Example 3, 4-(3,8-diazabicyclo[3.2.1]octan-8-yl)-7-(8-chloronaphthalen-1-yl)-2-(((S)-methylpyrrolidin-2-yl)methoxy)-5,6,7,8-tetrahydropyrido[3,4-d]pyrimidine]",IC50,[1],> 50 µM
same,IC50,[2],0.635 µM
"Cc1cccc2cccc(N3CCc4c(nc(OC[C@@H]5CCCN5C)nc4N4CC5CC4CN5)C3)c12 (stereo partly drawn) [Example 4, 4-(2,5-diazabicyclo[2.2.1]heptan-2-yl)-7-(8-methylnaphthalen-1-yl)-2-(((S)-1-methylpyrrolidin-2-yl)methoxy)-5,6,7,8-tetrahydropyrido[3,4-d]pyrimidine]",IC50,[1],> 50 µM
same,IC50,[2],2.59 µM
"Cc1cccc2cccc(N3CCc4c(nc(OC[C@@H]5CCCN5C)nc4N4CC5CCC(C4)N5)C3)c12 [Example 5, 4-(3,8-diazabicyclo[3.2.1]octan-3-yl)-7-(8-methylnaphthalen-1-yl)-2-(((S)-1-methylpyrrolidin-2-yl)methoxy)-5,6,7,8-tetrahydropyrido[3,4-d]pyrimidine]",IC50,[1],> 50 µM
same,IC50,[2],0.118 µM
same,IC50,[3],> 10 µM
"Cc1cccc2cccc(N3CCc4c(nc(OC[C@@H]5CCCN5C)nc4N4CC5CCC4CN5)C3)c12 (stereo partly drawn) [Example 6, 2-(7-(8-methylnaphthalen-1-yl)-2-(((S)-1-methylpyrrolidin-2-yl)methoxy)-5,6,7,8-tetrahydropyrido[3,4-d]pyrimidin-4-yl)-2,5-diazabicyclo[2.2.2]octane]",IC50,[1],> 50 µM
same,IC50,[2],0.713 µM
"CN1CCC[C@H]1COc1nc2c(c(N3CC4CCC(C3)N4)n1)CCN(c1cccc3cccc(Cl)c13)C2 [Example 7, 4-(3,8-diazabicyclo[3.2.1]octan-3-yl)-7-(8-chloronaphthalen-1-yl)-2-(((S)-1-methylpyrrolidin-2-yl)methoxy)-5,6,7,8-tetrahydropyrido[3,4-d]pyrimidine]",IC50,[1],17.2 µM
same,IC50,[2],0.059 µM
same,IC50,[3],6.75 µM
"Cc1cccc2cccc(N3CCc4c(nc(OC[C@@H]5CCCN5C)nc4N4CC5CC(C4)N5)C3)c12 [Example 8, 3-(7-(8-methylnaphthalen-1-yl)-2-(((S)-1-methylpyrrolidin-2-yl)methoxy)-5,6,7,8-tetrahydropyrido[3,4-d]pyrimidin-4-yl)-3,6-diazabicyclo[3.1.1]heptane]",IC50,[1],> 10 µM
same,IC50,[2],0.749 µM
CN1CCC[C@H]1COc1nc2c(c(N3CC4CCC(C3)N4)n1)CCN(c1cccc3ccc(Cl)c(Cl)c13)C2 [Example 9],IC50,[1],> 10 µM
same,IC50,[2],0.063 µM
same,IC50,[3],9.93 µM
CN1CCC[C@H]1COc1nc2c(c(N3CC4CCC(C3)N4)n1)CCN(c1cc(O)cc3ccccc13)C2 [Example 10],IC50,[1],6.21 µM
same,IC50,[2],0.022 µM
CN1CCC[C@H]1COc1nc2c(c(N3CC4CCC(C3)N4)n1)CCN(c1cccc3ccc(F)c(Cl)c13)C2 [Example 11],IC50,[1],3.62 µM
same,IC50,[2],0.012 µM
same,IC50,[3],4.64 µM
"CN1CCC[C@H]1COc1nc2c(c(N3CC4CCC(C3)N4)n1)CCN(c1cc(N)cc(Cl)c1C(F)(F)F)C2 [Example 12, 3-(4-(3,8-diazabicyclo[3.2.1]octan-3-yl)-2-(((S)-1-methylpyrrolidin-2-yl)methoxy)-5,8-dihydropyrido[3,4-d]pyrimidin-7(6H)-yl)-5-chloro-4-(trifluoromethyl)aniline]",IC50,[1],2.39 µM
same,IC50,[2],0.0098 µM
same,IC50,[3],1.95 µM
CN1CCC[C@H]1COc1nc2c(c(N3CC4CCC(C3)N4)n1)CCN(c1cc(N)cc(Cl)c1Cl)C2 [Example 13],IC50,[1],> 10 µM
same,IC50,[2],0.027 µM
same,IC50,[3],4.1 µM
"CO[C@@H]1C[C@@H](COc2nc3c(c(N4CC5CCC(C4)N5)n2)CCN(c2cccc4cccc(Cl)c24)C3)N(C)C1 [Example 14, 4-(3,8-diazabicyclo[3.2.1]octan-3-yl)-7-(8-chloronaphthalen-1-yl)-2-(((2S,4R)-4-methoxy-1-methylpyrrolidin-2-yl)methoxy)-5,6,7,8-tetrahydropyrido[3,4-d]pyrimidine]",IC50,[1],> 10 µM
same,IC50,[2],0.126 µM
same,IC50,[3],> 10 µM
"CN1C[C@H](F)C[C@H]1COc1nc2c(c(N3CC4CCC(C3)N4)n1)CCN(c1cccc3cccc(Cl)c13)C2 [Example 15, 4-(3,8-diazabicyclo[3.2.1]octan-3-yl)-7-(8-chloronaphthalen-1-yl)-2-(((2S,4R)-4-fluoro-1-methylpyrrolidin-2-yl)methoxy)-5,6,7,8-tetrahydropyrido[3,4-d]pyrimidine]",IC50,[1],> 10 µM
same,IC50,[2],0.041 µM
same,IC50,[3],4.03 µM
Cc1ncsc1-c1ccc([C@H](C)NC(=O)[C@@H]2C[C@@H](O)CN2C(=O)[C@@H](NC(=O)CCCCCCN2CCC[C@H]2COc2nc3c(c(N4CC5CCC(C4)N5)n2)CCN(c2cccc4cccc(Cl)c24)C3)C(C)(C)C)cc1 [Example 16],DC50,[4],1 µM
same,Dmax,[4],73%
